Measured values: US20170354650A1, “QUINOLINE DERIVATIVES FOR INHIBITING HISTONE METHYLTRANSFERASES AND USE THEREOF” (KOREA INSTITUTE OF SCIENCE AND TECHNOLOGY, priority 2016, published 2017)

Tests used:
ESET/SETDB1 = assay: Screening with Tet-inducible ESET/SETDB1 cell line (dot blot analysis, FIG. 1); type: cell-based; conditions: among 107 selected library compounds
Description: In order to find compounds that inhibit the ESET/SETDB1 enzyme, 107 compounds expected to inhibit the activity of ESET/SETDB1 were selected through structural modeling from a compound library. These compounds were screened using a Tet-inducible ESET cell line.
Tet-Inducible ESET (H3K9 Specific Histone Methyltransferase) Cell Line (Tetracycline-Inducible ESET Cells):
A Tet-inducible ESET cell line was prepared using the T-REx™ system available from Invitrogen. The myc-ESET gene was subcloned into pcDNA5/TO and transfected into somatic mother cells (STHdh^Q7/7, striatal cells) using pcDNA6/TR.
Confocal Microscopy for Determination of H3K9me3 (Confocal Microscopy for Identification of Change in Heterochromatin Condensation by H3K9Me3 and Drug)
An indirect fluorescence labeling method using fluorescein-conjugated secondary antibodies was used. After fixing ESET inducible cells with 4% PFA and incubating with H3K9me3 (rabbit antibody; dilution, 1:200; Millipore) primary antibodies, the cells were incubated with fluorescence-conjugated secondary antibodies (Alexa 594; dilution, 1:400; Thermo). Images were obtained using a confocal microscope (IX2-DSU, Olympus, Tokyo, Japan).
Among those compounds, #7 compound was a quinolone derivative, which is selected as a hit-compound through the instant experiment. The #7 compound in FIG. 1 is Compound 8 in the present invention.

[1] = test system: trimethylation of H3K9 (H3K9me3); assay: Change in H3K9 trimethylation in brain of YAC128 mouse; type: in vivo; conditions: striatal brain tissue of YAC128 mouse, anti-H3K9me3 blot, FIGS. 4A and 4B
Description: After adding the striatal brain tissue of YAC128 mouse to 1 mL of PBS containing 0.4 mM sodium butyrate, 5% Triton X-100, 3 mM DTT, 1 mM sodium orthovanadate, 5 mM sodium fluoride, 3 mM PMSF, 0.5 mg/mL leupeptin and 10 mg/mL aprotinin, a cell homogenate was obtained using a Downce crusher. After centrifugation at 3000 rpm for 10 minutes, the supernatant was removed. The precipitating cell pellet was washed twice with a 5% Triton buffer and histone was extracted with 0.2 M HCl. After neutralizing the histone-containing solution to neutral pH with 1 N NaOH, proteins were quantitated and separated by 15% SDS-PAGE. The change in trimethylation of H3K9 (H3K9me3) was investigated using anti-H3K9me3 (rabbit antibody; dilution, 1:1000; Millipore).

ESET/SETDB1 enzyme = biological target: T1, ESET/SETDB1 enzyme (Homo sapiens, UniProt Q15047); assay: SETDB1 chemiluminescence enzyme assay (BPS Bioscience kit); type: biochemical; conditions: test compound 1-100 μM, FIG. 2
T1 construct: purchased BPS Bioscience
Description: In order to investigate the inhibitory effect against the activity of the ESET/SETDB1 enzyme of the compounds according to the present disclosure, SETDB1 chemiluminescence assay was conducted for the compound 8. The SETDB1 assay was performed using the SetDB1 chemiluminescent assay kit (BPS Bioscience) according to the manufacturer's protocol. S-Adenosylmethionine (SAM, stock concentration 20 μM) was used as a […]. First, SAM and the test compounds were prepared to final concentrations of 1 μM, 3 μM, 10 μM, 30 μM and 100 μM by diluting with DMSO (final volume 1 μL). 150 μL of a TBST buffer (1X TBS, pH 8.0, containing 0.05% Tween-20) was added to each well of a 96-well plate and hydrated at room temperature for 15 minutes. A master mix containing an assay buffer, the compound 8 and the SETDB1 enzyme was prepared.
25 μL (7.5 μL 4×HMT buffer+2.5 μL 20 μM SAM+15 μL H2O) of the prepared master mix was added to each well of the plate. Then, 1 μL of the test compound (1 μM, 3 μM, 10 μM, 30 μM or 100 μM) and 20 μL of the diluted SetDB1 enzyme were added sequentially. […] Chemiluminescence resulting from the reaction between the HRP-conjugated secondary antibody and the added HRP substrate was measured using a chemiluminescence reader (Molecular Devices microplate reader) and the result was analyzed using the SoftMax Pro software.

transgenic YAC128 mouse = assay: Rotarod performance test in YAC128 animal model; type: in vivo; conditions: 15-month-old male YAC128 mice, 0.636 mg/kg for 3 weeks, 5 days a week, 5 rpm, compared to the vehicle, FIG. 3
Description: The effect of the compound according to the present disclosure on motor ability was evaluated using the transgenic YAC128 mouse which expresses the human Huntingtin gene containing 128 CAG repeat sequences as a model of Huntington's disease (HD) (Menalled L et al., 2009, Neurobiol Dis 35(3):319-36). The Huntington's disease model mouse is reported to show decline in motor ability, which is the typical pathological symptom of Huntington's disease, from 6 around months after birth, progress of neurodegeneration from 9 months and aggregation of mutant Huntington's genes in striatal neurons from around 18 months.
Rotarod performance test was conducted using 15-month-old male YAC128 mice. The drug was administered (0.636 mg/kg) for 3 weeks, 5 days a week, and the rotarod test was performed on the 5th day of each week.
The mouse was placed on a rotating rod (4 cm in diameter) and riding time was measured. The experiment was performed 4 times on the same day and 60 seconds was given to each mouse. The rotarod rotation speed was set to 5 rpm. The period of time until the mouse fell to the ground was measured. When the mouse remained longer than 60 seconds on the rod, the riding time was recorded as 60 seconds. The recorded time was statistically analyzed and was used as an indicator of the motor ability and balance of the mouse.

trimethylation of H3K9 (H3K9me3) (ESET/SETDB1 enzyme)	SMILES	inhibitory effect against ESET/SETDB1 (ESET/SETDB1)	intensity of trimethylated H3K9 [1]	riding time on the rod (transgenic YAC128 mouse)
–	C=CCNc1cccc2nc(N3CCCCC3)ccc12 [Compound 4, 2-(piperidin-1-yl)-N-allylquinolin-5-amine]	significant inhibitory effect	–	–
remarkably decreased	C=CCOc1cccc2nc(N3CCCC3)ccc12 [Compound 8, 5-allyloxy-2-(pyrrolidin-1-yl)quinoline]	significant inhibitory effect	remarkably decreased	remarkably increased
–	C=CCOc1cccc2nc(Nc3ccccc3)ccc12 [Compound 11, 5-allyloxy-N-phenylquinolin-2-amine]	significant inhibitory effect	–	–
